Data from US9034381B2, “Process to control particle size” (Alphapharm Pty Ltd, priority 2005, dated 2015).
Several values for one entry are separate records, joined by “and”; a condition that tells them apart may be missing. Identical values can stand only once.

Assay: Particle size measurement of milled material (Malvern Mastersizer S laser diffraction)
Type: physicochemical
[1] = Example 1 (comparative), feedstock, individual samples
[2] = Example 1 (comparative), feedstock
[3] = Example 1 (comparative), micronised in a single process, composite
[4] = Example 1 (comparative), micronised in a single process, individual samples
[5] = Example 2 (comparative), feedstock, individual samples
[6] = Example 2 (comparative), feedstock
[7] = Example 2 (comparative), micronised in a single process, composite
[8] = Example 2 (comparative), micronised in a single process, individual samples
[9] = Example 3 (comparative), feedstock
[10] = Example 3 (comparative), micronised in a single process, composite
[11] = Example 3 (comparative), micronised in a single process, individual samples
[12] = Example 4, micronised first pass
[13] = Example 4, micronised second pass

D[v, 0.5] [1]: 47.04 μm and 47.77 μm
D[v, 0.9] [1]: 98.61 μm and 101.96 μm
D[v, 0.5] mean [2]: 47.41 μm
D[v, 0.9] mean [2]: 100.29 μm
D[v, 0.5] composite (average) [3]: 15.27 μm
D[v, 0.9] composite (average) [3]: 53.30 μm
D[v, 0.5] [5]: 47.04 μm and 47.77 μm
D[v, 0.9] [5]: 98.61 μm and 101.96 μm
D[v, 0.5] mean [6]: 47.41 μm
D[v, 0.9] mean [6]: 100.29 μm
D[v, 0.5] composite (average) [7]: 5.95 μm
D[v, 0.9] composite (average) [7]: 30.47 μm
D[v, 0.5] [9]: 73.33 μm
D[v, 0.9] [9]: 323.50 μm
D[v, 0.5] composite [10]: 13.79 μm
D[v, 0.9] composite (average) [10]: 33.14 μm
D[v, 0.5] mean (Example 4, initial feedstock): 65.06 μm
D[v, 0.9] mean (Example 4, initial feedstock): 177.81 μm
D[v, 0.5] mean [12]: 33.89 μm
D[v, 0.9] mean [12]: 78.22 μm
D[v, 0.5] mean [13]: 16.30 μm
D[v, 0.9] mean [13]: 37.22 μm
Compound: NC(=O)N1c2ccccc2CC(=O)c2ccccc21 [Oxcarbazepine]
D[v, 0.5] [4]: 15.02 μm and 15.18 μm and 15.16 μm and 25.41 μm and 10.36 μm
D[v, 0.9] [4]: 52.08 μm and 51.71 μm and 51.94 μm and 67.97 μm and 44.13 μm
D[v, 0.5] [8]: 3.84 μm and 6.09 μm and 2.15 μm and 4.91 μm
D[v, 0.9] [8]: 19.56 μm and 31.90 μm and 11.56 μm and 27.25 μm
D[v, 0.5] [11]: 7.50 μm and 19.51 μm and 15.09 μm and 15.64 μm
D[v, 0.9] [11]: 16.47 μm and 44.34 μm and 34.47 μm and 35.78 μm
